Experimental data reported in ChEMBL document CHEMBL3352167 (Bioorg Med Chem, 2015).

Columns and labels:
[1] = Displacement of [3H]DTG from sigma2 receptor in guinea pig brain membrane after 120 mins by scintillation counting analysis; format: cell membranes, Cavia porcellus
[2] = target: Sodium-dependent serotonin transporter (Mus musculus, UniProt Q60857); experiment: Displacement of [3H]paroxetine from mouse SERT in whole brain membrane; format: cell membranes
[3] = target: Sigma non-opioid intracellular receptor 1 (Cavia porcellus, UniProt Q60492); experiment: Displacement of [3H]-(+)-pentazocine from sigma1 receptor in guinea pig brain membrane after 150 mins by scintillation counting analysis; format: cell membranes
[4] = organism: Cavia porcellus; experiment: Selectivity ratio of Ki for guinea pig brain sigma2 receptor to Ki for guinea pig brain sigma1 receptor
[5] = target: Sodium-dependent dopamine transporter (Mus musculus) (UniProt Q61327); experiment: […] from mouse DAT in striatal membranes at 10000 nM; format: cell membranes; settings: Striatum, Membrane
[6] = Selectivity ratio of Ki for mouse DAT to Ki for guinea pig brain sigma1 receptor
[7] = Selectivity ratio of Ki for mouse SERT to Ki for guinea pig brain sigma1 receptor
[8] = target: Sodium-dependent dopamine transporter (Mus musculus, UniProt Q61327); experiment: Displacement of [3H]RTI-121 from mouse DAT in striatal membranes; format: cell membranes, Striatum, Membrane
Sequence of Sodium-dependent dopamine transporter (Q61327 whole entry): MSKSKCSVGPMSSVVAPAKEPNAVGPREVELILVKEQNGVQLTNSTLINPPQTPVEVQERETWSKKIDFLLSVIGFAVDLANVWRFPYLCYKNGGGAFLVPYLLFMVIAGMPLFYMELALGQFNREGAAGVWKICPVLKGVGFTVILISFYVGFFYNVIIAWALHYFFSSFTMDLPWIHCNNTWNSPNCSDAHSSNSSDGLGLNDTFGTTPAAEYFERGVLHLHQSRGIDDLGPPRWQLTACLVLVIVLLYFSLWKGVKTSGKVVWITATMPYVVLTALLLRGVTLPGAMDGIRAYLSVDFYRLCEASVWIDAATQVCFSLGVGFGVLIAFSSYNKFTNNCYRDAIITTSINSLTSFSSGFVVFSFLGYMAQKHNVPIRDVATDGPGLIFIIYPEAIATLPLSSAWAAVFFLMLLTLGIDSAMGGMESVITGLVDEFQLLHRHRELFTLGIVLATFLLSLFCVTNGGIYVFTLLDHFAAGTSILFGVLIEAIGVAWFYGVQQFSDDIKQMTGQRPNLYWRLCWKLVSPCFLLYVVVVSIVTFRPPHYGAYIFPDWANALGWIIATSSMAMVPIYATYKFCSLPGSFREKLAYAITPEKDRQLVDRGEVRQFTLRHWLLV

Sequence of Sodium-dependent serotonin transporter (Q60857 whole entry): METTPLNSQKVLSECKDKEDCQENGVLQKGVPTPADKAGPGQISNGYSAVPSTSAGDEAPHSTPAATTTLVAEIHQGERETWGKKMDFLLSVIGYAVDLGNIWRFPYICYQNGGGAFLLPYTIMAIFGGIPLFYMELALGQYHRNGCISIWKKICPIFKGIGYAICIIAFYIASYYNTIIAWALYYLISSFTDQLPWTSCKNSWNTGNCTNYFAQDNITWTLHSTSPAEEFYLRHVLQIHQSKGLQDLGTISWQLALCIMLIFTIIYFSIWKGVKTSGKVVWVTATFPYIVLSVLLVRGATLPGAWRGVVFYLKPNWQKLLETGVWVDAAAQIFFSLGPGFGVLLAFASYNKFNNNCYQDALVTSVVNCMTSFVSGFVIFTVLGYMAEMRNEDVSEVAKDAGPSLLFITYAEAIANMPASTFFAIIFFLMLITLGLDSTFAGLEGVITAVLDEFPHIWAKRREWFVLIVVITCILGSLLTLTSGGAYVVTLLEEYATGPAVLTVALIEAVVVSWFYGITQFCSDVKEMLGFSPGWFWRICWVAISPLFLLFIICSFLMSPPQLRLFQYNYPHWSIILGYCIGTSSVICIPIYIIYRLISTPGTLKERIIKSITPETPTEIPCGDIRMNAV
Sequence of Sodium-dependent dopamine transporter (Mus musculus) (Q61327 whole entry): as the sequence (Q61327 whole entry) above
Sequence of Sigma non-opioid intracellular receptor 1 (Q60492 whole entry): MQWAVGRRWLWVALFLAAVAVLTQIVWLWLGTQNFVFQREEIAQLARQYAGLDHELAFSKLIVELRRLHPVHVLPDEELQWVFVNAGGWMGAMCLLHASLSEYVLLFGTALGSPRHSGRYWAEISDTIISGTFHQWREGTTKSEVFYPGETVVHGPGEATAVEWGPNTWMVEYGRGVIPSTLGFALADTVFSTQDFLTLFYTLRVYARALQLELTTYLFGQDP

| SMILES | Ki [1] [nM] | Ki [2] [nM] | Ki [3] [nM] | Ratio Ki [4] | Inhibition % [5] [%] | Ratio Ki [6] | Ratio Ki [7] | Ki [8] [nM] |
| --- | --- | --- | --- | --- | --- | --- | --- | --- |
| COc1ccc(CCN2CCN(CCCc3ccccc3)CC2)cc1OC [[11C]SA4503] | 63.1 | 760 |  |  |  |  |  |  |
| c1ccc(CCCN2CCN(CCc3ccc4c(c3)OCCO4)CC2)cc1 | 35.2 |  | 10.2 | 3.4 | 33 |  |  |  |
| C=CCOc1ccc(CCN2CCN(CCCc3ccccc3)CC2)cc1OC | 42.1 | 295 | 30.1 | 1.4 | 44 | 69 | 9.8 | 2080 |
| COc1ccc(CCN2CCN(CCCc3ccccc3)CC2)cc1 | 28.6 | 1730 | 1.3 | 22 |  | 1130 | 1330 | 1470 |
| COc1cc(CCN2CCN(CCCc3ccccc3)CC2)ccc1OCCF | 113 |  | 8.03 | 14.1 | 23 |  |  |  |
| CCCOc1ccc(CCN2CCN(CCCc3ccccc3)CC2)cc1OC | 33.4 | 124 | 25.6 | 1.3 | 43 | 71 | 4.8 | 1820 |
| c1ccc(CCCN2CCN(CCc3ccc4c(c3)OCCCO4)CC2)cc1 | 52.1 |  | 19.1 | 2.7 | 43 |  |  |  |
| COc1cc(CCN2CCN(CCCc3ccccc3)CC2)ccc1OCF | 250 |  | 6.4 | 39 | 19 |  |  |  |
| Clc1ccc(CCN2CCN(CCCc3ccccc3)CC2)cc1Cl | 38.8 | 2860 | 2.2 |  |  |  |  |  |
| COc1cc(CCN2CCN(CCCc3ccccc3)CC2)ccc1OCCCc1ccccc1 | 23.3 |  | 18.4 | 1.3 | 97 | 5 |  | 87 |
| COc1cc(CCN2CCN(CCCc3ccccc3)CC2)ccc1OCc1ccccc1 | 16.4 | 128 | 20.8 | 0.8 | 93 | 6 | 6.2 | 121 |

Now from value to compound:

| Ki [1] [nM] | Ki [2] [nM] | Ki [3] [nM] | Ratio Ki [4] | Inhibition % [5] [%] | Ratio Ki [6] | Ratio Ki [7] | Ki [8] [nM] | SMILES |
| --- | --- | --- | --- | --- | --- | --- | --- | --- |
| 16.7 |  | 10.7 | 1.6 | 94 | 22 |  | 237 | COc1cc(CCN2CCN(CCCc3ccccc3)CC2)ccc1OC/C=C\I |
| 27.1 |  | 25.4 | 1.1 | 38 |  |  |  | COc1cc(CCN2CCN(CCCc3ccccc3)CC2)ccc1OCCBr |
| 14.8 | 468 | 2.55 | 5.8 | 42 | 721 | 184 | 1840 | c1ccc(CCCN2CCN(CCc3ccc4c(c3)OCO4)CC2)cc1 |
| 7.5 |  |  |  |  |  |  |  | COc1ccccc1CCN1CCN(CCCc2ccccc2)CC1 |
| 16.6 |  | 13.3 | 1.2 | 89 |  |  |  | COc1cc(CCN2CCN(CCCc3ccccc3)CC2)ccc1OCCc1ccccc1 |
| 6.72 |  | 1.75 | 3.8 |  |  |  |  | COc1cc(CCN2CCN(CCCc3ccccc3)CC2)ccc1O |
| 10.2 | 985 | 1.4 | 7.3 |  | 1010 | 703 | 1410 | COc1cccc(CCN2CCN(CCCc3ccccc3)CC2)c1 |
| 18.2 | 174 | 16.9 | 1.1 | 69 | 33 | 10.3 | 560 | COc1cc(CCN2CCN(CCCc3ccccc3)CC2)ccc1OC/C=C/I |
